Results from the NIST ThermoML archive (doi:10.1016/j.fluid.2004.09.013).

Conditions: for mass density: Fluid (supercritical or subcritical phases), Vibrating tube method; for vapor or sublimation pressure: Liquid

C=C(C)C [2-methylpropene]
Conditions	mass density [kg/m3]
388.24 K, 14986 kPa	509.22
388.24 K, 19997 kPa	523.66
388.24 K, 25009 kPa	535.55
388.24 K, 29994 kPa	545.71
388.24 K, 35003 kPa	554.67
393.24 K, 3122 kPa	430.77
393.24 K, 4982 kPa	451.26
393.24 K, 9992 kPa	482.81
393.24 K, 14983 kPa	502.79
393.24 K, 20002 kPa	518.03
393.24 K, 25003 kPa	530.42
393.24 K, 29986 kPa	540.94
393.24 K, 34999 kPa	550.22
398.24 K, 3358 kPa	417.5
398.24 K, 4991 kPa	439.31
398.24 K, 10000 kPa	474.88
398.24 K, 15001 kPa	496.33
398.24 K, 19996 kPa	512.31
398.24 K, 24996 kPa	525.25
398.24 K, 30012 kPa	536.21
398.24 K, 35008 kPa	545.78
403.24 K, 3596 kPa	402.69
403.24 K, 4988 kPa	426.04
403.24 K, 14999 kPa	489.7
403.24 K, 19992 kPa	506.53
403.24 K, 24997 kPa	520.05
403.24 K, 30004 kPa	531.43
403.24 K, 34985 kPa	541.26
403.25 K, 9993 kPa	466.62
408.24 K, 3850 kPa	386.28
408.24 K, 4991 kPa	411.13
408.24 K, 14992 kPa	482.94
408.24 K, 19999 kPa	500.74
408.24 K, 24999 kPa	514.84
408.24 K, 30000 kPa	526.63
408.25 K, 9982 kPa	458.05
408.25 K, 34995 kPa	536.8
413.24 K, 4118 kPa	367.6
413.24 K, 30005 kPa	521.83
413.24 K, 35003 kPa	532.34
413.25 K, 4983 kPa	393.59
413.25 K, 9996 kPa	449.33
413.25 K, 14993 kPa	476.09
413.25 K, 19996 kPa	494.87
413.25 K, 24999 kPa	509.59
418.24 K, 4397 kPa	346.27
418.24 K, 4989 kPa	372.46
418.24 K, 14988 kPa	469.1
418.24 K, 19991 kPa	488.93
418.24 K, 24993 kPa	504.3
418.25 K, 9999 kPa	440.27
418.25 K, 30007 kPa	517.01
418.25 K, 34986 kPa	527.81
423.24 K, 5018 kPa	345.72
423.24 K, 19992 kPa	482.96
423.24 K, 30010 kPa	512.18
423.25 K, 9984 kPa	430.4
423.25 K, 14989 kPa	462
423.25 K, 25000 kPa	499.02
423.25 K, 34992 kPa	523.34
423.25 K, 39996 kPa	533.35
428.24 K, 5018 kPa	303.01
428.24 K, 24987 kPa	493.65
428.24 K, 34996 kPa	518.85
428.25 K, 9990 kPa	420.58
428.25 K, 14983 kPa	454.76
428.25 K, 19986 kPa	476.9
428.25 K, 30000 kPa	507.31
433.24 K, 5019 kPa	233.56
433.25 K, 9991 kPa	410.25
433.25 K, 14996 kPa	447.46
433.25 K, 19984 kPa	470.79
433.25 K, 24991 kPa	488.3
433.25 K, 30001 kPa	502.44
433.25 K, 34994 kPa	514.34
438.25 K, 5019 kPa	183.56
438.25 K, 9997 kPa	399.54
438.25 K, 14998 kPa	440.02
438.25 K, 19984 kPa	464.66
438.25 K, 24988 kPa	482.93
438.25 K, 30000 kPa	497.59
438.25 K, 34992 kPa	509.86
443.25 K, 5019 kPa	159.03
443.25 K, 9994 kPa	388.26
443.25 K, 14989 kPa	432.39
443.25 K, 20002 kPa	458.54
443.25 K, 24984 kPa	477.51
443.25 K, 29996 kPa	492.7
443.25 K, 34994 kPa	505.36
448.25 K, 5018 kPa	144.08
448.25 K, 9996 kPa	376.53
448.25 K, 14997 kPa	424.77
448.25 K, 19999 kPa	452.29
448.25 K, 24998 kPa	472.14
448.25 K, 29994 kPa	487.82
448.25 K, 35009 kPa	500.91
453.25 K, 5016 kPa	133.47
453.25 K, 9986 kPa	364.19
453.25 K, 14989 kPa	416.85
453.25 K, 19999 kPa	446.01
453.25 K, 25000 kPa	466.69
453.25 K, 29993 kPa	482.93
453.25 K, 35004 kPa	496.39

Conditions	vapor or sublimation pressure [kPa]
393.36 K	2656.5
399.86 K	2967.1
412.88 K	3665.8
